Assay results: patent US20260174671A1, “COMPOSITION FOR ALLEVIATING OR PREVENTING SYMPTOMS OF ALLERGIC RHINITIS OR ALLERGIC CONJUNCTIVITIS” (Nissui Corporation, priority 2022, published 2026)

Key:
[1] = system: atopic dermatitis model mice; conditions: PTL 4, cited from earlier work
dermatitis model animals = conditions: intake of DGLA; PTL 2; cited from earlier work
[2] = system: adult males and females who had experienced nasal and/or eye discomfort due to pollen; experiment: Severity classification of allergic rhinitis symptoms, placebo-controlled intake test during the pollen season; format: in vivo, human
Source text: The severity classification of allergic rhinitis symptoms refers to a method of classifying the severity based on Practical Guideline for the Management of Allergic Rhinitis in Japan 2020 (Committee of the Practical Guideline for the Management of Allergic Rhinitis). Specifically, each evening, the subject himself/herself selects the one that best describes the severity of the day on the subjective symptoms on each item listed in the table below.
The subjects were adult males and females who had experienced nasal and/or eye discomfort due to pollen for the past 2 years.
The remaining 36 subjects were randomized and divided into a DGLA administration group (intervention group; hereinafter referred to as DGLA group) with 18 subjects and a placebo administration group (control group; hereinafter referred to as placebo group) with 18 subjects. 3 subjects in the placebo group became untraceable during the testing. Therefore, the analysis was performed on 18 subjects in the DGLA group and 15 subjects in the placebo group.
The DGLA group: DGLA-containing oil (DGLA of 31.4% by weight) was taken at 1,000 mg/day for 15 weeks. The DGLA of 314 mg/day is to be taken in terms of free fatty acid. The DGLA-containing oil was obtained by the method described in Japanese Patent No. 3354581. Specifically, to 200 g of dry cells of a filamentous fungus (Mortierella alpina), 500 mL of hexane was added, the mixture was stirred, and the filtration was repeated three times to extract oil, and then the hexane layer was evaporated to obtain DGLA-containing oil. The subjects took 4 capsules filled with this oil per day.
The intake duration of the diet for testing was 15 weeks from January 8th to Apr. 23, 2022. […]
(§1) The mean±SD of the change in score from the start of the testing was calculated for each group at each time point, and statistical analysis was conducted. […]

[3] = system: adult males and females who had experienced nasal and/or eye discomfort due to pollen; experiment: Japanese Allergic Rhinitis Standard Quality of Life Questionnaire (JRQLQ), placebo-controlled intake test during the pollen season; format: in vivo, human
Source text: The JRQLQ is a questionnaire created by Okuda et al. to assess the impact of allergic rhinitis on quality of life (QOL) (Minoru Okuda et al.: Japanese Rhino-conjunctivitis Quality-of-Life Questionnaire (2002 edition), Committee of the Japanese Rhino-conjunctivitis Quality-of-Life Questionnaire, Allergy 2003; 52:21-56). […] In the JRQLQ, the subject himself/herself selects the one that best describes the severity of the worst nasal and eye symptoms the subject has experienced in the past 1-2 weeks on the items listed in the table below.
Also, as shown in Examples to be described later, the composition of the present invention can reduce the scores of nasal and eye symptoms in the JRQLQ, in particular, or suppress the increase of the score, compared to the placebo group. In the present invention, the phrase the “score of nasal and eye symptoms in the JRQLQ” means the sum of the scores of runny nose, sneezing, blocked nose, itchy nose, itchy eyes, and watery eyes in the JRQLQ. In a preferred embodiment of the present invention, the composition of the present invention can be used for reducing the scores of nasal and eye symptoms in the JRQLQ, or suppressing the increase of the score, compared to the placebo group. […]
as §1

[4] = system: splenocytes from the model mice; conditions: PTL 4; cited from earlier work

## CCCCC/C=C\C/C=C\C/C=C\CCCCC(=O)OCC [γ-linolenic acid (GLA) ethyl ester]
[1]; oral administration, atopic dermatitis model mice
  hyper IgE production: suppressed hyper IgE production

## CCCCCC=CCC=CCC=CCCCCCCC(=O)O [DGLA, 8,11,14-eicosatrienoic acid]
Dermatitis model animals
  dermatitis: suppresses dermatitis
[2]; DGLA group (n=18) vs placebo group (n=15), DGLA-containing oil 1,000 mg/day (DGLA 314 mg/day) oral, 15 weeks, p<0.01, FIG. 1
  sneezing attack score in the severity classification of allergic rhinitis symptoms, change from the start of testing (week 0): significantly reduced
[2]; DGLA group (n=18) vs placebo group (n=15), DGLA-containing oil 1,000 mg/day (DGLA 314 mg/day) oral, 15 weeks, p<0.05, FIG. 2
  nasal congestion score in the severity classification of allergic rhinitis symptoms, change from the start of testing (week 0): significantly reduced
[2]; Group H (score 1 or higher at week 0) vs Group L (score 0), no significant difference, P=0.249-0.712, FIGS. 4 to 8
  stratification analysis of the DGLA group, severity classification items (sneezing attack, nasal discharge, nasal congestion, itchy eyes, tearing): all the mean values for the items of Group H were lower than those of Group L
[3]; DGLA group (n=18) vs placebo group (n=15), DGLA-containing oil 1,000 mg/day (DGLA 314 mg/day) oral, 15 weeks, p<0.1, FIG. 3
  JRQLQ nasal and eye symptom score (sum of runny nose, sneezing, blocked nose, itchy nose, itchy eyes, watery eyes), change from week 0: tended to be reduced
[3]; Group H (score 1 or higher at week 0) vs Group L (score 0), no significant difference, P=0.084-0.59, FIGS. 9 to 14
  stratification analysis of the DGLA group, JRQLQ items (runny nose, sneezing, blocked nose, itchy nose, itchy eyes, watery eyes): all the mean values for the items of Group H were lower than those of Group L

## CCCCC/C=C\C/C=C\C/C=C\CCCCC(=O)O [GLA, γ-linolenic acid]
[1]; orally administered for two months, atopic dermatitis-affected mice with hyper IgE-emia
  IgE production: suppression of IgE production was not observed
[4]
  IgE production in vitro: suppressed IgE production
